Laboratory results from US9527867B2, “Antibacterial biaromatic derivatives” (Actelion Pharmaceuticals Ltd., priority 2013, dated 2016).
Converted amounts (≈) assume the structure as drawn.

What was measured:
Experiment in all cases: Bacterial growth minimal inhibitory concentration (broth microdilution, CLSI M7-A7)
Format in all cases: cell-based
[1] = test system: Staphylococcus aureus ATCC29213; details: Staphylococcus aureus, ATCC29213, cation-adjusted Mueller-Hinton Broth, methicillin-sensitive and quinolone-sensitive strain, read-out: MIC for S. aureus ATCC29213
Method: (§1) Minimal Inhibitory Concentrations (MICs; mg/L) were determined in cation-adjusted Mueller-Hinton Broth by a microdilution method following the description given in “Methods for Dilution Antimicrobial Susceptibility Tests for Bacteria that Grow Aerobically”, Approved standard, 7th ed., Clinical and Laboratory Standards Institute (CLSI) Document M7-A7, Wayne, Pa., USA (2006).
(§2) All Example compounds were tested against several Gram positive and Gram negative bacteria. […] Staphylococcus aureus A798, Enterococcus faecium A949 and Acinetobacter baumannii T6474 are multiply-resistant strains (in particular quinolone-resistant), while Moraxella catarrhalis A894 is a quinolone-sensitive strain and Staphylococcus aureus ATCC29213 is a methicillin-sensitive and quinolone-sensitive strain.

[2] = test system: Acinetobacter baumannii T6474; details: Acinetobacter baumannii, T6474, cation-adjusted Mueller-Hinton Broth, multiply-resistant strain (in particular quinolone-resistant)
Method: as §1, §2

[3] = test system: Enterococcus faecium A949; details: Enterococcus faecium, A949, cation-adjusted Mueller-Hinton Broth, multiply-resistant strain (in particular quinolone-resistant), read-out: MIC for E. faecium A949
Method: as §1, §2

[4] = test system: Staphylococcus aureus A798; details: Staphylococcus aureus, A798, cation-adjusted Mueller-Hinton Broth, multiply-resistant strain (in particular quinolone-resistant), read-out: MIC for S. aureus A798
Method: as §1, §2

[5] = test system: Moraxella catarrhalis A894; details: Moraxella catarrhalis, A894, cation-adjusted Mueller-Hinton Broth, quinolone-sensitive strain
Method: as §1, §2

SMILES | MIC [1] | MIC [2] | MIC [3] | MIC [4] | MIC [5]
COc1cccc(-c2cccc(CNCC[C@H]3CN(c4ccc5c(n4)NC(=O)CO5)C(=O)O3)c2)n1 [Example 41, 6-((S)-5-{2-[3-(6-methoxy-pyridin-2-yl)-benzylamino]-ethyl}-2-oxo-oxazolidin-3-yl)-4H-pyrido[3,2-b][1,4]oxazin-3-one] | 0.063 mg/L (≈ 0.132 µM) | 0.25 mg/L (≈ 0.526 µM) | 1 mg/L (≈ 2.1 µM) | 0.063 mg/L (≈ 0.132 µM) | ≤ 0.016 mg/L
COc1ccc(C#N)c(-c2cccc(CNCC[C@H]3CN(c4ccc5c(n4)NC(=O)CO5)C(=O)O3)c2)c1 [Example 42, 5-methoxy-3′-({2-[(S)-2-oxo-3-(3-oxo-3,4-dihydro-2H-pyrido[3,2-b][1,4]oxazin-6-yl)-oxazolidin-5-yl]-ethylamino}-methyl)-biphenyl-2-carbonitrile] | 0.063 mg/L (≈ 0.126 µM) | 0.5 mg/L (≈ 1 µM) | 1 mg/L (≈ 2 µM) | 0.125 mg/L (≈ 0.25 µM) | ≤ 0.016 mg/L
COc1cccc(-c2cccc(CNCC[C@H]3CN(c4ccc5c(c4)NC(=O)CS5)C(=O)O3)c2)n1 [Example 43, 6-((S)-5-{2-[3-(6-methoxy-pyridin-2-yl)-benzylamino]-ethyl}-2-oxo-oxazolidin-3-yl)-4H-benzo[1,4]thiazin-3-one] | 0.125 mg/L (≈ 0.255 µM) | 0.5 mg/L (≈ 1.02 µM) | 2 mg/L (≈ 4.08 µM) | 0.063 mg/L (≈ 0.128 µM) | ≤ 0.016 mg/L
COc1cnnc(-c2cccc(CNCC[C@H]3CN(c4ccc5c(n4)NC(=O)CO5)C(=O)O3)c2)c1 [Example 44, 6-((S)-5-{2-[3-(5-methoxy-pyridazin-3-yl)-benzylamino]-ethyl}-2-oxo-oxazolidin-3-yl)-4H-pyrido[3,2-b][1,4]oxazin-3-one] | 0.25 mg/L (≈ 0.525 µM) | 0.25 mg/L (≈ 0.525 µM) | 8 mg/L (≈ 16.8 µM) | 0.125 mg/L (≈ 0.262 µM) | ≤ 0.016 mg/L
N#Cc1cc(O)nc(-c2cccc(CNCC[C@@H]3CN(c4ccc5c(c4)NC(=O)CS5)C(=O)O3)c2)c1 [Example 47, 2-hydroxy-6-[3-({2-[(R)-2-oxo-3-(3-oxo-3,4-dihydro-2H-benzo[1,4]thiazin-6-yl)-oxazolidin-5-yl]-ethylamino}-methyl)-phenyl]-isonicotinonitrile] | 4 mg/L (≈ 7.97 µM) | 8 mg/L (≈ 15.9 µM) | > 8 mg/L | 4 mg/L (≈ 7.97 µM) | 0.25 mg/L (≈ 0.498 µM)
COc1ccc(-c2cccc(CNCC[C@H]3CN(c4ccc5c(n4)NC(=O)CO5)C(=O)O3)c2)cc1OC [Example 48, 6-((S)-5-{2-[(3′,4′-dimethoxy-biphenyl-3-ylmethyl)-amino]-ethyl}-2-oxo-oxazolidin-3-yl)-4H-pyrido[3,2-b][1,4]oxazin-3-one] | 4 mg/L (≈ 7.93 µM) | 16 mg/L (≈ 31.7 µM) | 16 mg/L (≈ 31.7 µM) | 4 mg/L (≈ 7.93 µM) | 0.125 mg/L (≈ 0.248 µM)
O=C1COc2ccc(N3C[C@H](CCNCc4cccc(-c5cccc(OCC6CCC6)c5)c4)OC3=O)nc2N1 [Example 50, 6-((S)-5-{2-[(3′-cyclobutylmethoxy-biphenyl-3-ylmethyl)-amino]-ethyl}-2-oxo-oxazolidin-3-yl)-4H-pyrido[3,2-b][1,4]oxazin-3-one] | 4 mg/L (≈ 7.57 µM) | > 8 mg/L | 8 mg/L (≈ 15.1 µM) | 2 mg/L (≈ 3.78 µM) | 0.5 mg/L (≈ 0.946 µM)
O=C1COc2ccc(N3C[C@H](CCNCc4cccc(-c5cccc(OCCCO)c5)c4)OC3=O)nc2N1 [Example 53, 6-[(S)-5-(2-{[3′-(3-hydroxy-propoxy)-biphenyl-3-ylmethyl]-amino}-ethyl)-2-oxo-oxazolidin-3-yl]-4H-pyrido[3,2-b][1,4]oxazin-3-one] | 2 mg/L (≈ 3.86 µM) | 4 mg/L (≈ 7.71 µM) | 16 mg/L (≈ 30.9 µM) | 1 mg/L (≈ 1.93 µM) | 0.125 mg/L (≈ 0.241 µM)
COCCOc1cccc(-c2cccc(CNCC[C@H]3CN(c4ccc5c(n4)NC(=O)CO5)C(=O)O3)c2)c1 [Example 54, 6-[(S)-5-(2-{[3′-(2-methoxy-ethoxy)-biphenyl-3-ylmethyl]-amino}-ethyl)-2-oxo-oxazolidin-3-yl]-4H-pyrido[3,2-b][1,4]oxazin-3-one] | 2 mg/L (≈ 3.86 µM) | 8 mg/L (≈ 15.4 µM) | 16 mg/L (≈ 30.9 µM) | 2 mg/L (≈ 3.86 µM) | 0.125 mg/L (≈ 0.241 µM)
COc1cc(-c2cccc(CNCC[C@H]3CN(c4ccc5c(n4)NC(=O)CO5)C(=O)O3)c2)ccn1 [Example 55, 6-((S)-5-{2-[3-(2-methoxy-pyridin-4-yl)-benzylamino]-ethyl}-2-oxo-oxazolidin-3-yl)-4H-pyrido[3,2-b][1,4]oxazin-3-one] | 2 mg/L (≈ 4.21 µM) | 1 mg/L (≈ 2.1 µM) | > 8 mg/L | 2 mg/L (≈ 4.21 µM) | 0.031 mg/L (≈ 0.0652 µM)
COc1cc(-c2cccc(CNCC[C@H]3CN(c4ccc5c(n4)NC(=O)CO5)C(=O)O3)c2)cnn1 [Example 59, 6-((S)-5-{2-[3-(6-methoxy-pyridazin-4-yl)-benzylamino]-ethyl}-2-oxo-oxazolidin-3-yl)-4H-pyrido[3,2-b][1,4]oxazin-3-one] | 2 mg/L (≈ 4.2 µM) | 2 mg/L (≈ 4.2 µM) | > 8 mg/L | 4 mg/L (≈ 8.39 µM) | 0.125 mg/L (≈ 0.262 µM)
N#Cc1cc(-c2cccc(CNCC[C@H]3CN(c4ccc5c(n4)NC(=O)CO5)C(=O)O3)c2)cnn1 [Example 60, 5-[3-({2-[(S)-2-oxo-3-(3-oxo-3,4-dihydro-2H-pyrido[3,2-b][1,4]oxazin-6-yl)-oxazolidin-5-yl]-ethylamino}-methyl)-phenyl]-pyridazine-3-carbonitrile] | 2 mg/L (≈ 4.24 µM) | 1 mg/L (≈ 2.12 µM) | > 8 mg/L | 4 mg/L (≈ 8.48 µM) | 0.063 mg/L (≈ 0.134 µM)

Second part, the compound after the results:

MIC [1] | MIC [2] | MIC [3] | MIC [4] | MIC [5] | SMILES
0.125 mg/L (≈ 0.266 µM) | 0.25 mg/L (≈ 0.532 µM) | 2 mg/L (≈ 4.26 µM) | 0.125 mg/L (≈ 0.266 µM) | ≤ 0.016 mg/L | N#Cc1cccc(-c2cccc(CNCC[C@H]3CN(c4ccc5c(n4)NC(=O)CO5)C(=O)O3)c2)c1 [Example 40, 3′-({2-[(S)-2-oxo-3-(3-oxo-3,4-dihydro-2H-pyrido[3,2-b][1,4]oxazin-6-yl)-oxazolidin-5-yl]-ethylamino}-methyl)-biphenyl-3-carbonitrile]
2 mg/L (≈ 4.12 µM) | 2 mg/L (≈ 4.12 µM) | > 8 mg/L | 4 mg/L (≈ 8.24 µM) | 0.125 mg/L (≈ 0.257 µM) | N#Cc1ccc(O)c(-c2cccc(CNCC[C@H]3CN(c4ccc5c(n4)NC(=O)CO5)C(=O)O3)c2)c1 [Example 45, 6-hydroxy-3′-({2-[(S)-2-oxo-3-(3-oxo-3,4-dihydro-2H-pyrido[3,2-b][1,4]oxazin-6-yl)-oxazolidin-5-yl]-ethylamino}-methyl)-biphenyl-3-carbonitrile]
0.5 mg/L (≈ 1.06 µM) | 0.25 mg/L (≈ 0.531 µM) | 2 mg/L (≈ 4.25 µM) | 0.5 mg/L (≈ 1.06 µM) | 0.031 mg/L (≈ 0.0659 µM) | N#Cc1cccc(-c2cc(CNCC[C@H]3CN(c4ccc5c(n4)NC(=O)CO5)C(=O)O3)ccn2)c1 [Example 46, 3-[4-({2-[(S)-2-oxo-3-(3-oxo-3,4-dihydro-2H-pyrido[3,2-b][1,4]oxazin-6-yl)-oxazolidin-5-yl]-ethylamino}-methyl)-pyridin-2-yl]-benzonitrile]
1 mg/L (≈ 2.13 µM) | 0.5 mg/L (≈ 1.07 µM) | 8 mg/L (≈ 17.1 µM) | 2 mg/L (≈ 4.27 µM) | 0.031 mg/L (≈ 0.0662 µM) | N#Cc1cccc(-c2cc(CNCCc3cn(-c4ccc5c(n4)NC(=O)CO5)c(=O)o3)ccn2)c1 [Example 49, 3-[4-({2-[2-oxo-3-(3-oxo-3,4-dihydro-2H-pyrido[3,2-b][1,4]oxazin-6-yl)-2,3-dihydro-oxazol-5-yl]-ethylamino}-methyl)-pyridin-2-yl]-benzonitrile]
0.5 mg/L (≈ 1.05 µM) | 0.5 mg/L (≈ 1.05 µM) | 2 mg/L (≈ 4.22 µM) | 1 mg/L (≈ 2.11 µM) | ≤ 0.016 mg/L | COc1cccc(-c2cccc(CNCCc3nn(-c4ccc5c(n4)NC(=O)CO5)c(=O)o3)c2)n1 [Example 51, 6-(5-{2-[3-(6-methoxy-pyridin-2-yl)-benzylamino]-ethyl}-2-oxo-[1,3,4]oxadiazol-3-yl)-4H-pyrido[3,2-b][1,4]oxazin-3-one]
0.5 mg/L (≈ 1 µM) | 2 mg/L (≈ 4.01 µM) | 4 mg/L (≈ 8.02 µM) | 1 mg/L (≈ 2.01 µM) | 0.031 mg/L (≈ 0.0622 µM) | COc1ccc(C#N)c(-c2cccc(CNCCc3nn(-c4ccc5c(n4)NC(=O)CO5)c(=O)o3)c2)c1 [Example 52, 5-methoxy-3′-({2-[5-oxo-4-(3-oxo-3,4-dihydro-2H-pyrido[3,2-b][1,4]oxazin-6-yl)-4,5-dihydro-[1,3,4]oxadiazol-2-yl]-ethylamino}-methyl)-biphenyl-2-carbonitrile]
0.5 mg/L (≈ 1.07 µM) | 1 mg/L (≈ 2.13 µM) | 4 mg/L (≈ 8.54 µM) | 2 mg/L (≈ 4.27 µM) | ≤ 0.016 mg/L | N#Cc1cccc(-c2cccc(CNCCc3nn(-c4ccc5c(n4)NC(=O)CO5)c(=O)o3)c2)c1 [Example 56, 3′-({2-[5-oxo-4-(3-oxo-3,4-dihydro-2H-pyrido[3,2-b][1,4]oxazin-6-yl)-4,5-dihydro-[1,3,4]oxadiazol-2-yl]-ethylamino}-methyl)-biphenyl-3-carbonitrile]
2 mg/L (≈ 3.89 µM) | 8 mg/L (≈ 15.5 µM) | 8 mg/L (≈ 15.5 µM) | 1 mg/L (≈ 1.94 µM) | 0.125 mg/L (≈ 0.243 µM) | O=C1COc2ccc(N3C[C@H](CCNCc4cccc(-c5cccc(OCC6CC6)c5)c4)OC3=O)nc2N1 [Example 58, 6-((S)-5-{2-[(3′-cyclopropylmethoxy-biphenyl-3-ylmethyl)-amino]-ethyl}-2-oxo-oxazolidin-3-yl)-4H-pyrido[3,2-b][1,4]oxazin-3-one]
